# In ChEMBL document CHEMBL5352493, “Dual inhibitors of ASK1 and PDK1 kinases: Design, synthesis, molecular docking and mechanism studies of N-benzyl pyridine-2-one containing derivatives as anti-fibrotic agents” (Eur J Med Chem, 2023):
# Key:
# [1] = Antiproliferative against rat HSC-T6 cells measured after 48 hrs by CCK8 assay; format: toxicity, cell-based
# [2] = target: T1, Mitogen-activated protein kinase kinase kinase 5 (Homo sapiens, UniProt Q99683); experiment: Inhibition of human recombinant ASK1 using MBP as substrate preincubated for 1 hr followed by reagent addition incubated for 40 mins by ATP-Glo kinase assay
# T1 sequence (Q99683 whole entry): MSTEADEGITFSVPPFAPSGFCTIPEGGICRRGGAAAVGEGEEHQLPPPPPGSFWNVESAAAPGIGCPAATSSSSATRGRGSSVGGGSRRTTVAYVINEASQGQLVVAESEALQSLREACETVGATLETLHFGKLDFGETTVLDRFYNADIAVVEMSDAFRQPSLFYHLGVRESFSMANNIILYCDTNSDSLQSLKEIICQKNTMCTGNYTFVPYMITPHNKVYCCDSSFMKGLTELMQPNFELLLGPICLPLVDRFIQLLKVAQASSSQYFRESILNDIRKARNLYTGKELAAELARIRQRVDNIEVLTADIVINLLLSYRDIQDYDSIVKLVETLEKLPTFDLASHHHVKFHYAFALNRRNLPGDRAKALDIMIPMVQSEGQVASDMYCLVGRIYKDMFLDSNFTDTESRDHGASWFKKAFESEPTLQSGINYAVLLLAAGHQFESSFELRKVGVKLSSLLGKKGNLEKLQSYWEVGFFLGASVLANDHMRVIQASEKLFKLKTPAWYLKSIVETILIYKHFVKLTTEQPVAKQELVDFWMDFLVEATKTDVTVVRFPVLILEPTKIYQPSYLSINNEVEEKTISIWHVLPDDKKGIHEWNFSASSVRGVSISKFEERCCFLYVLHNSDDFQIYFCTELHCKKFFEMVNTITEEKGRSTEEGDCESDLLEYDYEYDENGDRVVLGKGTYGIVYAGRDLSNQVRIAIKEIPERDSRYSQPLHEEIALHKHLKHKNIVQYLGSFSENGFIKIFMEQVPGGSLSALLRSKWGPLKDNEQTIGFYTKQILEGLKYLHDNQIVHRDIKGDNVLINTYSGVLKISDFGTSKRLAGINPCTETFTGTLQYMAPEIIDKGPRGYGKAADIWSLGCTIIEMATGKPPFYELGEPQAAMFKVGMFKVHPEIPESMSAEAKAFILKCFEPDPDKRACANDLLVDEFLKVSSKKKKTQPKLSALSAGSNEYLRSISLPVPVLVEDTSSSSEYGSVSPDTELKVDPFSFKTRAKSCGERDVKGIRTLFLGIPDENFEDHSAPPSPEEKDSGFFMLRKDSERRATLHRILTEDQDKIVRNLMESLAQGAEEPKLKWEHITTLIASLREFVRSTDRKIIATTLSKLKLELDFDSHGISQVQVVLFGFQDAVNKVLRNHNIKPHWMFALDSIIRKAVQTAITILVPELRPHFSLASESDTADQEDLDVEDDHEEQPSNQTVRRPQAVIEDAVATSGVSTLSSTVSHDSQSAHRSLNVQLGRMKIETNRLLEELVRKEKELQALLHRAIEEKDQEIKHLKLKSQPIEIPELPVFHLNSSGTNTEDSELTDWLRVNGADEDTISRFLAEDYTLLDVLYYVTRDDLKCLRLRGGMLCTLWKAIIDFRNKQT
# [3] = Antiproliferative against HLF1 cells measured after 48 hrs by CCK8 assay; format: toxicity, cell-based; details: human, HFL1 cells (description prints HLF1)
# [4] = Antiproliferative against rat NRK-49F cells measured after 48 hrs by CCK8 assay; format: toxicity, cell-based
# [5] = Antiproliferative against human BEAS-2B cells measured after 48 hrs by CCK8 assay; format: toxicity, cell-based
# [6] = target: T1, Mitogen-activated protein kinase kinase kinase 5; experiment: Inhibition of ASK1 (unknown origin)
IC50 [2],IC50 [6],Structure (SMILES),IC50 at 48 h [1],IC50 at 48 h [3],IC50 at 48 h [4],IC50 at 48 h [5]
> 5 µM,,CC(C)n1cnnc1-c1cccc(NC(=O)c2cc3c(C(F)(F)F)nn(C)c3[nH]c2=O)c1,> 80 µM,> 80 µM,> 80 µM,
> 5 µM,,CC(C)n1cnnc1-c1cccc(NC(=O)c2cc3c(C(F)(F)F)nn(C)c3nc2OCc2ccccc2F)n1,> 80 µM,17.9 µM,> 80 µM,
> 5 µM,,CC(C)n1cnnc1-c1cccc(NC(=O)c2cc3c(C(F)(F)F)nn(C)c3n(C)c2=O)c1,> 80 µM,> 80 µM,56.1 µM,
0.489 µM,,Cn1nc(C(F)(F)F)c2cc(C(=O)Nc3cccc(-c4nncn4C4CC4)n3)c(=O)[nH]c21,> 80 µM,> 80 µM,> 80 µM,
> 5 µM,,Cn1nc(C(F)(F)F)c2cc(C(=O)Nc3cccc(-c4nncn4C4CCCC4)c3)c(=O)[nH]c21,> 80 µM,> 80 µM,> 80 µM,
2.66 µM,,CC(C)n1cnnc1-c1cccc(NC(=O)c2cc3c(C(F)(F)F)nn(C)c3[nH]c2=O)n1,> 80 µM,> 80 µM,> 80 µM,
,,O=C(Nc1cccc(-c2nncn2C2CC2)c1)c1cc(-n2cnc(C3CC3)c2)ccn1,33.4 µM,67.9 µM,34.4 µM,90.2 µM
> 5 µM,,O=C(Nc1cccc(-c2nncn2C2CC2)n1)c1cc(-c2cccc3[nH]ccc23)cn(Cc2ccccc2F)c1=O,> 80 µM,> 80 µM,47 µM,
1.57 µM,,CCn1c(=O)c(C(=O)Nc2cccc(-c3nncn3C3CCCCC3)n2)cc2c(C(F)(F)F)nn(C)c21,> 80 µM,> 80 µM,> 80 µM,
0.289 µM,,O=C(Nc1cccc(-c2nncn2C2CC2)n1)c1cc(-c2cnn(C3CCC3)c2)cn(Cc2ccccc2F)c1=O,> 80 µM,10.7 µM,> 80 µM,
1.02 µM,,Cn1nc(C(F)(F)F)c2cc(C(=O)Nc3cccc(-c4nncn4C4CCCC4)n3)c(OCc3ccccc3F)nc21,14.8 µM,7.99 µM,11.4 µM,
> 5 µM,,Cn1nc(C(F)(F)F)c2cc(C(=O)Nc3cccc(-c4nncn4C4CCCCC4)c3)c(=O)[nH]c21,> 80 µM,> 80 µM,> 80 µM,
0.978 µM,,CCCCn1cnnc1-c1cccc(NC(=O)c2cc3c(C(F)(F)F)nn(C)c3[nH]c2=O)n1,> 80 µM,> 80 µM,> 80 µM,
1.29 µM,,Cn1nc(C(F)(F)F)c2cc(C(=O)Nc3cccc(-c4nncn4C4CC4)n3)c(OCc3ccccc3F)nc21,> 80 µM,62.5 µM,55.2 µM,
,0.0129 µM,Cc1cc(F)c(C(=O)Nc2cccc(-c3nncn3C(C)C)c2)cc1-n1cnc(C2CC2)c1,,,,
2.18 µM,,Cn1nc(C(F)(F)F)c2cc(C(=O)Nc3cccc(-c4nncn4C4CCCC4)n3)c(=O)[nH]c21,> 80 µM,> 80 µM,> 80 µM,
> 5 µM,,O=C(Nc1cccc(-c2nncn2C2CC2)n1)c1cc(-c2ccc3scnc3c2)cn(Cc2ccccc2F)c1=O,> 80 µM,68.3 µM,34.2 µM,
> 5 µM,,Cn1nc(C(F)(F)F)c2cc(C(=O)Nc3cccc(-c4nncn4C4CCCCC4)n3)c(=O)[nH]c21,> 80 µM,> 80 µM,> 80 µM,
> 5 µM,,O=C(Nc1cccc(-c2nncn2C2CC2)n1)c1cc(-c2ccc3[nH]ccc3c2)cn(Cc2ccccc2F)c1=O,> 80 µM,18.7 µM,5.75 µM,

Structure (SMILES),IC50 [2],IC50 [6],IC50 at 48 h [1],IC50 at 48 h [3],IC50 at 48 h [4],IC50 at 48 h [5]
O=C(Nc1cccc(-c2nncn2C2CC2)n1)c1cc(-c2cnc(Cl)nc2)cn(Cc2ccccc2F)c1=O,2.37 µM,,> 80 µM,29.2 µM,> 80 µM,
O=C(Nc1cccc(-c2nncn2C2CC2)n1)c1cc(Br)cn(Cc2ccccc2F)c1=O,> 5 µM,,> 80 µM,> 80 µM,> 80 µM,
O=C(N[C@@H](COc1ccc2[nH]c(=O)[nH]c2c1)c1ccccc1)c1cccn(Cc2ccc(F)c(F)c2)c1=O,> 5 µM,,36.2 µM,64.8 µM,40.4 µM,96.4 µM
O=C(Nc1cccc(-c2nncn2C2CC2)n1)c1cc(-c2cccnc2)cn(Cc2ccccc2F)c1=O,> 5 µM,,> 80 µM,64.2 µM,> 80 µM,
O=C(Nc1cccc(-c2nncn2C2CC2)n1)c1cc(-c2cnn(C(F)F)c2)cn(Cc2ccccc2F)c1=O,0.291 µM,,> 80 µM,> 80 µM,58.5 µM,
